Consider one molecule from paper PMC7708426, “Identification of potential TNF-α inhibitors: from in silico to in vitro studies” (Scientific Reports, 2020).

The IC50 is the concentration that gives 50% inhibition.

This assay has as its system TNF-α. The assay is described as follows: TNF-α inhibition in LPS-activated THP-1 cells (Human TNF-α ELISA of supernatants). In kind it is cell-based. The following applies: PMA-differentiated THP-1 cells activated with 50 ng/mL LPS, 4 h, mean ± SEM of triplicate. As to the method: THP-1 cells (Human monocytic leukemia cells) were obtained from Biobank facility, ICCBS, University of Karachi, which was purchased from the ECACC (European Collection of Cell Cultures, UK). The cells were cultured in RPMI-1640, supplemented with 10% FBS (fetal bovine serum), 50 µmol/L mercaptoethanol (Merck, Damstadt, Germany), 5.5 mmol/L glucose (BioM Laboratories, Chemical Division, Malaysia), 2 mmol/L; L-glutamine (PAA Laboratories, GmbH, Pasching, Austria), 10 mmol/L HEPES (MP Biomedicals, lLLKIRCH, France) and 1 mmol/L sodium pyruvate (GIBCO, Grand Island, NY, USA). Cells were harvested and 2 × 10^5 cells/mL were then added to 24-well tissue culture plates. Differentiation of cells was performed by adding 20 ng/mL of phorbol myristate acetate (PMA) (SERVA, Heidelberg, Germany), and by incubation at 37 °C for 24 h in 5% CO2. […] The supernatants were analyzed for the level of TNF-α using Human TNF-α ELISA Kit (R&D Systems, Minneapolis, USA).
Briefly the working concentration of 4 μg/mL in PBS from 720 μg/mL of mouse anti-human TNF-α capture antibodies were used for coating of 96 well ELISA plate. […] The reaction was stopped by adding 50 μL of stop solution (2 N H2SO4) and plate was then read at wavelength of 450 nm in ELISA reader (ELX800 NB, DIA LAB, Wr. Neudrof, Austria).
On the technique in general: ELISA stands for enzyme-linked immunosorbent assay.

`CC(=O)CCCCn1c(=O)c2c(ncn2C)n(C)c1=O` [Pentoxifylline] had an IC50 of 341 ± 7.54 µM.
